Source: patent US11357779B2 (G1 Therapeutics, Inc., priority 2018, dated 2022)
Like-named read-outs stand apart in the source and are kept apart here.

Test: Plasma concentration versus time of Compound I and metabolite Compound III in patients dosed QD or BID with Form B of Compound II plus fulvestrant
Assay type: in vivo, human
Conditions: human, plasma, oral, read-out: Compound I Concentration
Excerpt: Patients were enrolled into 1 of 2 parallel, independently operating, dose-escalation dosing cohorts with Form B of Compound II administered continuously either once daily (QD) or twice daily (BID) with food with fixed-dose fulvestrant (intramuscularly every 14 days for the first three injections and then every 28 days). Pre- or perimenopausal patients also received goserelin for the duration of study treatment. A […] agonist was started at least 28 days before the first dose of Form B, and those patients who were taking another LHRH agonist were switched to goserelin on Day 1. Patients were split into […] cohorts providing once a day (QD) dosing of 200 mg, 300 mg, 400 mg, 500 mg, or 650 mg of Form B, or twice a day (BID) dosing of 100 mg, 150 mg, or 200 mg of Form B. The second dose in BID cohorts was not administered in the evening until at least 12 hours after the initial morning dose of Form B. The dosing cohorts for Form B of Compound II are provided in Table 1.
Blood samples were collected at the following time points relative to the morning dose of Form B at Day 1 and at Day 29: pre-dose (0 hour) and 1, 2, 3, 4, 6, 8, 10, 12 (prior to the evening dose in the BID cohorts), and 24 (prior to the next day's morning dose) hours after dosing. A 5-minute time window was allowed for samples collected between the predose and 3 hours after Form B dosing. A 15-minute window was allowed for samples collected between 4 to 12 hours after Form B dosing. A 1-hour window was allowed for the sample collected 24 hours after Form B dosing. Blood samples for Compound I PK trough levels were collected pre-dose at Day 8, Day 15, and Day 22 prior to the morning administration of Compound I. Plasma concentrations of Compound I and its metabolite, Compound III, were measured using validated methods.
Analysis of plasma concentration versus time data for calculation of standard pharmacokinetic (PK) parameters following oral administration was conducted using Phoenix WinNonlin version 6.3 using actual blood sampling times.

CC(C)N1CCN(c2ccc(Nc3ncc4cc5n(c4n3)C3(CCCCC3)CNC5=O)nc2)CC1 [Compound I, 2′-((5-(4-isopropylpiperazin-1-yl)pyridin-2-yl)amino)-7′,8′-dihydro-6′H-spiro[cyclohexane-1,9′-pyrazino[1′,2′:1,5]pyrrolo[2,3-d]pyrimidin]-6′-one] gave a concentration at 1 h (300 mg, 300 mg QD of Form B, Day 29, 1.0 h, Median) of 15.4 ng/mL, a concentration at 2 h (300 mg, 300 mg QD of Form B, Day 29, 2.0 h, Mean) of 22.6 ng/mL and a concentration at 2 h (300 mg, 300 mg QD of Form B, Day 29, 2.0 h, Median) of 19.5 ng/mL. The concentration at 3 h (300 mg, 300 mg QD of Form B, Day 29, 3.0 h, Mean) was 31 ng/mL, the concentration at 3 h (300 mg, 300 mg QD of Form B, Day 29, 3.0 h, Median) was 26.3 ng/mL and the concentration at 4 h (300 mg, 300 mg QD of Form B, Day 29, 4.0 h, Mean) was 44.9 ng/mL. For the same compound, the concentration at 4 h (300 mg, 300 mg QD of Form B, Day 29, 4.0 h, Median) was 34.2 ng/mL, the concentration at 6 h (300 mg, 300 mg QD of Form B, Day 29, 6.0 h, Mean) was 35.9 ng/mL and the concentration at 6 h (300 mg, 300 mg QD of Form B, Day 29, 6.0 h, Median) was 39.2 ng/mL. The concentration at 8 h (300 mg, 300 mg QD of Form B, Day 29, 8.0 h, Mean) was 31.5 ng/mL, the concentration at 8 h (300 mg, 300 mg QD of Form B, Day 29, 8.0 h, Median) was 33.3 ng/mL and the concentration at 10 h (300 mg, 300 mg QD of Form B, Day 29, 10.0 h, Mean) was 25.6 ng/mL. It also gave a concentration at 10 h (300 mg, 300 mg QD of Form B, Day 29, 10.0 h, Median) of 18.9 ng/mL, a concentration at 12 h (300 mg, 300 mg QD of Form B, Day 29, 12.0 h, Mean) of 26.4 ng/mL and a concentration at 12 h (300 mg, 300 mg QD of Form B, Day 29, 12.0 h, Median) of 20.5 ng/mL. The concentration at 24 h (300 mg, 300 mg QD of Form B, Day 29, […], Mean) was 14.4 ng/mL, the concentration at 24 h (300 mg, 300 mg QD of Form B, Day 29, […], Median) was 10.9 ng/mL and the concentration at 0 h (400 mg, 400 mg QD of Form B, Day 1, 0.0 h, Mean) was 0 ng/mL. For the same compound, the concentration at 0 h (400 mg, 400 mg QD of Form B, Day 1, 0.0 h, Median) was 0 ng/mL, the concentration at 1 h (400 mg, 400 mg QD of Form B, Day 1, 1.0 h, Mean) was 5.32 ng/mL and the concentration at 1 h (400 mg, 400 mg QD of Form B, Day 1, 1.0 h, Median) was 2.26 ng/mL. It also gave a concentration at 2 h (400 mg, 400 mg QD of Form B, Day 1, 2.0 h, Mean) of 5.67 ng/mL, a concentration at 2 h (400 mg, 400 mg QD of Form B, Day 1, 2.0 h, Median) of 4.83 ng/mL and a concentration at 3 h (400 mg, 400 mg QD of Form B, Day 1, 3.0 h, Mean) of 9.21 ng/mL. The concentration at 3 h (400 mg, 400 mg QD of Form B, Day 1, 3.0 h, Median) was 9.38 ng/mL, the concentration at 4 h (400 mg, 400 mg QD of Form B, Day 1, 4.0 h, Mean) was 14 ng/mL and the concentration at 4 h (400 mg, 400 mg QD of Form B, Day 1, 4.0 h, Median) was 13.1 ng/mL. It also gave a concentration at 6 h (400 mg, 400 mg QD of Form B, Day 1, 6.0 h, Mean) of 20.1 ng/mL, a concentration at 6 h (400 mg, 400 mg QD of Form B, Day 1, 6.0 h, Median) of 21.6 ng/mL and a concentration at 8 h (400 mg, 400 mg QD of Form B, Day 1, 8.0 h, Mean) of 15.5 ng/mL. For the same compound, the concentration at 8 h (400 mg, 400 mg QD of Form B, Day 1, 8.0 h, Median) was 16 ng/mL, the concentration at 10 h (400 mg, 400 mg QD of Form B, Day 1, 10.0 h, Mean) was 10.6 ng/mL and the concentration at 10 h (400 mg, 400 mg QD of Form B, Day 1, 10.0 h, Median) was 9.56 ng/mL. For the same compound, the concentration at 12 h (400 mg, 400 mg QD of Form B, Day 1, 12.0 h, Mean) was 7.69 ng/mL, the concentration at 12 h (400 mg, 400 mg QD of Form B, Day 1, 12.0 h, Median) was 8.13 ng/mL and the concentration at 24 h (400 mg, 400 mg QD of Form B, Day 1, […], Mean) was 3.27 ng/mL. The concentration at 24 h (400 mg, 400 mg QD of Form B, Day 1, […], Median) was 3.31 ng/mL, the concentration at 0 h (400 mg, 400 mg QD of Form B, Day 29, 0.0 h, Mean) was 6.8 ng/mL and the concentration at 0 h (400 mg, 400 mg QD of Form B, Day 29, 0.0 h, Median) was 7.52 ng/mL. It also gave a concentration at 1 h (400 mg, 400 mg QD of Form B, Day 29, 1.0 h, Mean) of 8.07 ng/mL, a concentration at 1 h (400 mg, 400 mg QD of Form B, Day 29, 1.0 h, Median) of 9.88 ng/mL and a concentration at 2 h (400 mg, 400 mg QD of Form B, Day 29, 2.0 h, Mean) of 11.1 ng/mL. The concentration at 2 h (400 mg, 400 mg QD of Form B, Day 29, 2.0 h, Median) was 13.4 ng/mL, the concentration at 3 h (400 mg, 400 mg QD of Form B, Day 29, 3.0 h, Mean) was 14.2 ng/mL and the concentration at 3 h (400 mg, 400 mg QD of Form B, Day 29, 3.0 h, Median) was 17.2 ng/mL. For the same compound, the concentration at 4 h (400 mg, 400 mg QD of Form B, Day 29, 4.0 h, Mean) was 17 ng/mL, the concentration at 4 h (400 mg, 400 mg QD of Form B, Day 29, 4.0 h, Median) was 21.2 ng/mL and the concentration at 6 h (400 mg, 400 mg QD of Form B, Day 29, 6.0 h, Mean) was 18.9 ng/mL. For the same compound, the concentration at 6 h (400 mg, 400 mg QD of Form B, Day 29, 6.0 h, Median) was 23.2 ng/mL, the concentration at 8 h (400 mg, 400 mg QD of Form B, Day 29, 8.0 h, Mean) was 17 ng/mL and the concentration at 8 h (400 mg, 400 mg QD of Form B, Day 29, 8.0 h, Median) was 20.5 ng/mL. The concentration at 10 h (400 mg, 400 mg QD of Form B, Day 29, 10.0 h, Mean) was 14.2 ng/mL, the concentration at 10 h (400 mg, 400 mg QD of Form B, Day 29, 10.0 h, Median) was 17.1 ng/mL and the concentration at 12 h (400 mg, 400 mg QD of Form B, Day 29, 12.0 h, Mean) was 11.8 ng/mL. The concentration at 12 h (400 mg, 400 mg QD of Form B, Day 29, 12.0 h, Median) was 13.5 ng/mL, the concentration at 24 h (400 mg, 400 mg QD of Form B, Day 29, […], Mean) was 6.26 ng/mL and the concentration at 24 h (400 mg, 400 mg QD of Form B, Day 29, […], Median) was 7.04 ng/mL. It also gave a concentration at 0 h (500 mg, 500 mg QD of Form B, Day 1, 0.0 h, Mean) of 0 ng/mL.
